Source: patent US20230365592A1 (Agios Pharmaceuticals, Inc., priority 2022, published 2023)
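Note: after compound treatment, cells received sepiapterin plus isotope-labelled Phenylalanine for 4 hours, then labelled Tyrosine in the medium was quantified, 10-point 2-fold dilution series run in duplicate.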

What follows are molecules tested against T1, human PAH with the R408W mutation (Homo sapiens, UniProt P00439, R408W) (assay: Cell Based Phenylalanine Flux Assay). Details: A375 cells expressing R408W PAH; 24 hrs with compound, then 20 µM sepiapterin and 800 µM 13C9,15N-Phenylalanine for 4 hours; 13C-Tyrosine by LC-MS; average where tested multiple times; read-out: AC50.
T1 construct: expressed in transfected cells
T1 sequence (P00439 1-452 R408W): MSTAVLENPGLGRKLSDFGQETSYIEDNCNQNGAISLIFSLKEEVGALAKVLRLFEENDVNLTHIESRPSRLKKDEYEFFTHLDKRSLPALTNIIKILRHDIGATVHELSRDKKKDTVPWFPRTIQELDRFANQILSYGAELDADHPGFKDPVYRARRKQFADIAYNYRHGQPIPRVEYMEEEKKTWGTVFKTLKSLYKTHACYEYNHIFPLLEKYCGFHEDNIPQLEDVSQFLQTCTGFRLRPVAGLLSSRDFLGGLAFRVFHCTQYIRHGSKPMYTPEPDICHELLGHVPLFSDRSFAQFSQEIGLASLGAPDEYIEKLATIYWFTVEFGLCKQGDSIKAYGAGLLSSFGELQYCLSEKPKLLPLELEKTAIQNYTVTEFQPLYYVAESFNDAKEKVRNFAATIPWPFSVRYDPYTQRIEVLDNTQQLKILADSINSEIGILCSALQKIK
With `FC1(F)CC(c2nnc(N3CCc4[nH]cnc4C3c3cc4c(C5CC5)cccn4n3)o2)C1` (centres unmarked) the AC50 was 1 to 5 µM. `O=C(c1nnc(CCN2CC(F)C2)o1)N1CCc2[nH]cnc2C1c1cc2ccccn2n1` (centres unmarked) [2-[2-(3-fluoroazetidin-1-yl)ethyl]-5-(4-{pyrazolo[1,5-a]pyridin-2-yl}-1H,4H,5H,6H,7H-imidazo[4,5-c]pyridine-5-carbonyl)-1,3,4-oxadiazole] gave an AC50 of over 5 µM. `Clc1cccc2cc(C3c4nc[nH]c4CCN3c3nnc(C4CC4)o3)nn12` (centres unmarked) gave an AC50 of 1 to 5 µM. Molecule `Cc1ccn2nc(C3c4nc[nH]c4CCN3C(=O)c3nnc(C(C)(C)O)o3)cc2c1` (centres unmarked) has an AC50 of 1 to 5 µM. With `Cc1cccc2cc(C3c4nc[nH]c4CCN3C(=O)c3nnc(C4CC(F)(F)C4)o3)nn12` (centres unmarked) the AC50 was over 5 µM.

Same assay, conditions: A375 cells expressing human PAH R408W; 24 hrs compound incubation; 13C-Tyrosine by LC-MS; average where tested multiple times; read-out: AC50
Molecule `Cc1cccn2nc([C@@H]3c4nc[nH]c4CCN3C(=O)c3cnc(-c4cnccn4)o3)cc12` [Example 2240, (S)-(4-(4-methylpyrazolo[1,5-a]pyridin-2-yl)-1,4,6,7-tetrahydro-5H-imidazo[4,5-c]pyridin-5-yl)(2-(pyrazin-2-yl)oxazol-5-yl)methanone] has an AC50 of 0.5 to 1 µM. `O=C(c1nnc(-c2cnn(C(F)(F)F)c2)o1)N1CCc2[nH]cnc2[C@H]1c1cc2c(OC(F)F)cccn2n1` [Example 2458, (S)-(4-(4-(difluoromethoxy)pyrazolo[1,5-a]pyridin-2-yl)-6,7-dihydro-1H-imidazo[4,5-c]pyridin-5(4H)-yl)(5-(1-(trifluoromethyl)-1H-pyrazol-4-yl)-1,3,4-oxadiazol-2-yl)methanone] showed an AC50 of 1 to 5 µM. For `FC(F)(F)c1ccc(N2CCc3[nH]cnc3[C@@H]2c2cc3cccc(Cl)n3n2)nc1` [Example 2137, (R)-4-(7-chloropyrazolo[1,5-a]pyridin-2-yl)-5-(5-(trifluoromethyl)pyridin-2-yl)-4,5,6,7-tetrahydro-1H-imidazo[4,5-c]pyridine], the AC50 was over 5 µM.

Same assay, conditions: A375 cells expressing human R408W PAH; 24 hrs compound incubation; 13C-Tyrosine by LC-MS; average where tested multiple times; read-out: AC50
`O=C(c1oc(C2(O)CC2)nc1C(F)F)N1CCc2[nH]cnc2[C@H]1c1cc2cccc(C(F)(F)F)n2n1` [Example 1268, (S)-(4-(difluoromethyl)-2-(1-hydroxycyclopropyl)oxazol-5-yl)(4-(7-(trifluoromethyl)pyrazolo[1,5-a]pyridin-2-yl)-6,7-dihydro-1H-imidazo[4,5-c]pyridin-5(4H)-yl)methanone] was tested, and the AC50 was under 0.5 µM. `Cc1cccn2nc([C@@H]3c4nc[nH]c4CCN3c3nnc(C4CC4)o3)cc12` [Example 1589, (S)-2-cyclopropyl-5-(4-(4-methylpyrazolo[1,5-a]pyridin-2-yl)-6,7-dihydro-1H-imidazo[4,5-c]pyridin-5(4H)-yl)-1,3,4-oxadiazole] showed an AC50 of 0.5 to 1 µM. For `O=C(c1cnn2ccccc12)N1CCc2[nH]cnc2[C@H]1c1cc2c(C(F)F)cccn2n1` [Example 1730, (S)-(4-(4-(difluoromethyl)pyrazolo[1,5-a]pyridin-2-yl)-6,7-dihydro-1H-imidazo[4,5-c]pyridin-5(4H)-yl)(pyrazolo[1,5-a]pyridin-3-yl)methanone], the AC50 was under 0.5 µM. In the case of `Cc1cccn2nc([C@@H]3c4nc[nH]c4CCN3C(=O)c3nnc(-c4ccn(C(F)(F)F)n4)o3)cc12` [Example 1478, (S)-(4-(4-methylpyrazolo[1,5-a]pyridin-2-yl)-6,7-dihydro-1H-imidazo[4,5-c]pyridin-5(4H)-yl)(5-(1-(trifluoromethyl)-1H-pyrazol-3-yl)-1,3,4-oxadiazol-2-yl)methanone], the AC50 is reported as under 0.5 µM. Work on `C[C@@H](O)c1nc(C(F)F)c(C(=O)N2CCc3[nH]cnc3[C@H]2c2cc3c(Cl)cccn3n2)o1` [Example 702, ((S)-4-(4-chloropyrazolo[1,5-a]pyridin-2-yl)-6,7-dihydro-1H-imidazo[4,5-c]pyridin-5(4H)-yl)(4-(difluoromethyl)-2-((R)-1-hydroxyethyl)oxazol-5-yl)methanone] yielded an AC50 of under 0.5 µM. `O=C(c1nnc(-c2cnn(C(F)F)c2)o1)N1CCc2[nH]cnc2[C@@H]1c1cc2cccc(F)n2n1` [Example 985, (R)-(5-(1-(difluoromethyl)-1H-pyrazol-4-yl)-1,3,4-oxadiazol-2-yl)(4-(7-fluoropyrazolo[1,5-a]pyridin-2-yl)-6,7-dihydro-1H-imidazo[4,5-c]pyridin-5(4H)-yl)methanone] gave an AC50 of 1 to 5 µM. In the case of `Cc1cccn2nc([C@H]3c4nc[nH]c4CCN3C(=O)c3nnc(-c4ccc(C(F)(F)F)cn4)o3)cc12` [Example 872, (R)-(4-(4-methylpyrazolo[1,5-a]pyridin-2-yl)-6,7-dihydro-1H-imidazo[4,5-c]pyridin-5(4H)-yl)(5-(5-(trifluoromethyl)pyridin-2-yl)-1,3,4-oxadiazol-2-yl)methanone], the AC50 is reported as over 5 µM. With `O=C(c1oc(C2CC2)nc1C(F)F)N1CCc2[nH]cnc2[C@H]1c1cc2ccccn2n1` [Example 632, (S)-(2-cyclopropyl-4-(difluoromethyl)oxazol-5-yl)(4-(pyrazolo[1,5-a]pyridin-2-yl)-6,7-dihydro-1H-imidazo[4,5-c]pyridin-5(4H)-yl)methanone] the AC50 was under 0.5 µM. `FC(F)(F)c1cnc(N2CCc3[nH]cnc3[C@H]2c2cc3ccccn3n2)nc1` [Example 1752, (S)-4-(pyrazolo[1,5-a]pyridin-2-yl)-5-(5-(trifluoromethyl)pyrimidin-2-yl)-4,5,6,7-tetrahydro-1H-imidazo[4,5-c]pyridine] was tested, and the AC50 was under 0.5 µM. `Cc1cccn2nc([C@@H]3c4nc[nH]c4CCN3C(=O)c3nnc(-c4cnn(C(F)F)c4)o3)cc12` [Example 820, (S)-(5-(1-(difluoromethyl)-1H-pyrazol-4-yl)-1,3,4-oxadiazol-2-yl)(4-(4-methylpyrazolo[1,5-a]pyridin-2-yl)-6,7-dihydro-1H-imidazo[4,5-c]pyridin-5(4H)-yl)methanone] showed an AC50 of under 0.5 µM. `Cc1ncccc1-c1nnc(C(=O)N2CCc3[nH]cnc3[C@@H]2c2cc3c(C)cccn3n2)o1` [Example 1331, (R)-(4-(4-methylpyrazolo[1,5-a]pyridin-2-yl)-6,7-dihydro-1H-imidazo[4,5-c]pyridin-5(4H)-yl)(5-(2-methylpyridin-3-yl)-1,3,4-oxadiazol-2-yl)methanone] showed an AC50 of 1 to 5 µM. Work on `Cc1cccn2nc([C@@H]3c4nc[nH]c4CCN3C(=O)c3nc(Cl)nn3C)cc12` [Example 1076, (S)-(3-chloro-1-methyl-1H-1,2,4-triazol-5-yl)(4-(4-methylpyrazolo[1,5-a]pyridin-2-yl)-6,7-dihydro-1H-imidazo[4,5-c]pyridin-5(4H)-yl)methanone] yielded an AC50 of under 0.5 µM. `O=C(c1nnc(-c2cnn(CC(F)(F)F)c2)o1)N1CCc2[nH]cnc2[C@@H]1c1cc2ccccn2n1` [Example 647, (R)-(4-(pyrazolo[1,5-a]pyridin-2-yl)-6,7-dihydro-1H-imidazo[4,5-c]pyridin-5(4H)-yl)(5-(1-(2,2,2-trifluoroethyl)-1H-pyrazol-4-yl)-1,3,4-oxadiazol-2-yl)methanone] showed an AC50 of over 5 µM. `Cn1ncnc1C(=O)N1CCc2[nH]cnc2[C@H]1c1cc2c(C(F)(F)F)cccn2n1` [Example 1044, (S)-(1-methyl-1H-1,2,4-triazol-5-yl)(4-(4-(trifluoromethyl)pyrazolo[1,5-a]pyridin-2-yl)-6,7-dihydro-1H-imidazo[4,5-c]pyridin-5(4H)-yl)methanone] was tested, and the AC50 was under 0.5 µM. Work on `O=C(Cc1nc(C(F)(F)F)cs1)N1CCc2[nH]cnc2[C@H]1c1cc2ccccn2n1` [Example 608, (S)-1-(4-(pyrazolo[1,5-a]pyridin-2-yl)-6,7-dihydro-1H-imidazo[4,5-c]pyridin-5(4H)-yl)-2-(4-(trifluoromethyl)thiazol-2-yl)ethanone] yielded an AC50 of 1 to 5 µM.
